This note sets out measurements from patent publication US20240400983A1, “CELL AGGREGATE INCLUDING PITUITARY HORMONE-PRODUCING CELLS AND METHOD FOR PRODUCING SAME” (Sumitomo Pharma Co., Ltd., priority 2021, published 2024).

No end group written: not given here.

In assay [1] the test system is cell aggregates containing pituitary hormone-producing cells (reaggregated EpCAM-positive cells from human ES cells). Kind of assay: ACTH stimulation test using CRH or dexamethasone on reaggregated EpCAM-positive cell aggregates (ACTH ELISA of culture supernatant). The settings on record: 24 hr. The format is cell-based. As for the experimental part:
An ACTH stimulation test using CRH (manufactured by NIPRO ES PHARMA CO., LTD.) was performed using cell aggregates obtained by purifying and reaggregating cell aggregates on day 62 after the start of differentiation induction and suspension culturing for 41 days. Twenty cell aggregates were transferred to a 10 cm suspension culture dish containing a serum-free medium (10 mL) supplemented with 20% KSR, cultured for 24 hr under condition of 37° C., 40% 02, and the culture supernatant was recovered. The cell aggregates were washed with a serum-free medium supplemented with 20% KSR, transferred to a new 10 cm suspension culture dish containing a serum-free medium (10 mL) supplemented with 20% KSR, and CRH 5 μg/mL was added. After culturing for 24 hr under condition of 37° C., 40% O2, the culture supernatant was recovered. The ACTH concentration in the collected culture supernatant was measured by the ELISA method used in clinical testing (testing outsourced to SRL, Inc.).
In addition, the response of EpCAM-positive cell reaggregates to hormones was also examined. On day 60 after the start of differentiation induction, cell sorting was performed using an anti-EpCAM antibody, and then EpCAM-positive cells were reaggregated and cultured until day 103 after the start of differentiation induction. Thereafter, an ACTH stimulation test using CRH (manufactured by NIPRO ES PHARMA CO., LTD.) or dexamethasone (DX, manufactured by Aspen Japan K.K.) was conducted. Specifically, 20 cell aggregates were transferred to a 10 cm suspension culture dish containing 10 mL of serum-free medium supplemented with 20% KSR, and after culturing for 24 hr under conditions of 37° C., 40% 02, the culture supernatant was recovered. […] The ACTH concentration in the recovered culture supernatant was measured by the ELISA method used in clinical testing (testing outsourced to SRL, Ltd.). […]
On the technique in general: An ELISA detects its analyte on a solid surface through an enzyme-linked reagent.

The test system of a further assay is hypopituitary mice. The assay is described as follows: Transplantation of EpCAM-positive cell reaggregates under the kidney capsule of hypopituitary mice; blood ACTH with CRH, dexamethasone or LPS stimulation. The format is in vivo, mouse. Set-up: dose or concentration left out as unconfirmed. The settings on record: CRH intraperitoneal; blood 1 hr after; 4, 12, 24 weeks after transplantation.

Assay [2] deals with cell aggregates from human iPS cells. Kind of assay: Comparison of SAG treatment period on ACTH secretion capacity of cell aggregates from human iPS cells. Type of assay: cell-based. The settings on record: SAG until day 30 versus continued after day 30 (days 61, 103, 131). As for the experimental part: Cell aggregates containing hypothalamic cells, pituitary progenitor cells, and pituitary hormone-producing cells were produced using the same differentiation induction method as in Example 1 (method without cell sorting using anti-EpCAM antibody). Regarding the SAG treatment period, two groups of a group in which SAG is added from immediately after the start of differentiation induction until day 30 (see FIG. 2), and a group so in which SAG is added from immediately after the start of differentiation induction and after day 30 (until days 61, 103, and 131) were set, and the ACTH secretion capacity was compared.

The test system of assay [3] is cell aggregates containing pituitary hormone-producing cells (day 63 sort, DX treated for 14 days). Kind of assay: GH stimulation test using GRF and GH suppression test using somatostatin. The format is cell-based, human. The settings on record: day 63 sort + 40 days, DX 14 days; GRF 2 μg/mL, 24 hr. The protocol:
Using cell aggregates obtained by purifying and reaggregating cell aggregates on day 63 after the start of differentiation induction, suspension culturing for 40 days, and treating with DX for 14 days, a GH stimulation test using GRF and a GH suppression test using somatostatin were conducted. Fifteen cell aggregates were transferred to a 6-well culture plate (manufactured by SUMITOMO BAKELITE CO., LTD., for suspension culturing, culture area 9.2 cm^2) containing a serum-free medium (2 mL) supplemented with 20% KSR, cultured for 24 hr under conditions of 37° C., 40% O2, and the culture supernatant was recovered. The cell aggregates were washed with a serum-free medium supplemented with 20% KSR, transferred to a 6-well culture plate containing a new serum-free medium (2 mL) supplemented with 20% KSR, and GRF 2 μg/mL or somatostatin 100 ng/mL was added. After culturing for 24 hr under condition of 37° C., 40% O2, the culture supernatant was recovered. […]

Protocol for hypopituitary mice: Thereafter, the cells were cultured up to day 107 after the start of differentiation induction and transplanted to under the capsule of the left kidney of hypopituitary mice (10-17 weeks old) whose pituitary was surgically removed (transplantation group). A control group (sham group) was also set in which only the transplantation procedure was performed and no EpCAM-positive cells were transplanted. In addition, hypopituitary mice whose pituitary gland was surgically removed were produced by performing using a transaural approach on SCID mice (7-9 weeks old, male). […] CRH stimulation was applied to the transplantation group and the sham group, and the effect on ACTH secretion capacity was examined. Specifically, mice were administered with CRH (2 pg/kg, intraperitoneal administration) 4, 12, or 24 weeks after transplantation, and blood was collected before CRH administration and 1 hr after CHR administration. Each blood ACTH concentration was measured using ACTH ELISA kit (MD Bioproducts).

“CRH: CRH (manufactured by NIPRO ES PHARMA CO., LTD.) used for the ACTH stimulation test (SEEPPISLDLTFHLLREVLEMARAEQLAQQAHSNRKLMEII; ends and bridges not checked; UniProt P06850 154-194, looked up)”: the “increase of ACTH secretion amount by CRH stimulation” value in assay [1] (day 60 sort, cultured to day 103, 5 μg/mL CRH) was “about 2.2 times”. Besides, the “increase of the amount of ACTH secretion by addition of CRH” value in assay [1] (day 62 sort + 41 days suspension culture, CRH 5 μg/mL) was “a little less than two times”. Moreover, the “blood ACTH concentration after CRH stimulation in transplantation group” value in the assay with hypopituitary mice is recorded as “further increase”.
Turning to `C[C@@H]1C[C@H]2[C@@H]3CCC4=CC(=O)C=C[C@]4(C)[C@@]3(F)[C@@H](O)C[C@]2(C)[C@@]1(O)C(=O)CO` [dexamethasone], the “decrease of ACTH secretion amount by dexamethasone stimulation” value in assay [1] (day 60 sort, cultured to day 103, 500 ng/mL dexamethasone) is listed as “about 50%”.
With `CNC1CCC(N(Cc2cccc(-c3ccncc3)c2)C(=O)c2sc3ccccc3c2Cl)CC1` (stereo not drawn) [SAG, N-Methyl-N′-(3-pyridinylbenzyl)-N′-(3-chlorobenzo[b]thiophene-2-carbonyl)-1,4-diaminocyclohexane], in assay [2], the “ACTH secretion capacity depending on SAG treatment period” value is listed as “improved by stopping SAG treatment on day 30”.
As to “GRF: GRF used for the GH stimulation test (YADAIFTNSYRKVLGQLSARKLLQDIMSRQQGESNQERGARARL; ends and bridges not checked; UniProt P01286 32-75, looked up)”, the “increase of the amount of GH secretion by addition of GRF” value in assay [3] was “a little less than two times”.
